Entries after “also recorded” stand apart in the source; their conditions may differ.
Tests used:
IL-1β [1] = assay: In vitro inhibition of production of IL-1β in PMA-differentiated THP-1 cells (LPS + ATP, ELISA); type: cell-based, Human; settings: THP-1 derived macrophages
Protocol: The procedures detailed here can be utilized for testing all compounds of the disclosure.
(§1) Human monocytic THP-1 cells were treated with phorbol 12-myristate 13 acetate (PMA) (100 nM) overnight to differentiate monocytic cells into macrophages. Then, after 24 hours of rest, the differentiated cells were incubated with test compounds for 12 hours at concentrations 0.01, 0.1, 1, 10, 30, and 50 μM. Cells were then washed once with PBS and primed with E. coli LPS (0.1 μg/ml) for 4 h followed by stimulation with ATP (5 μM) for an additional 30 min. The cell culture supernatants were then collected and OD values for IL-1β levels were measured by ELISA. The standard curve (OD VS concentration) for IL-1β was also plotted and used to determine the IL-1β concentration for the OD values. The percentage of inhibition of IL-1β was calculated using the formula: […]
(§2) The percentage IL-1β inhibition at different compound concentrations were plotted in a sigmoid curve and IC50 values were interpolated in Graphpad Prism. Cell death was evaluated by propidium iodide staining and OD was measured at 490 nm. Cell viability was estimated with respect to DMSO control.

THP-1 cells = assay: Cell viability by propidium iodide staining; type: cell-based; settings: at 10 μM; with respect to DMSO control
Protocol: as §1, §2

IL-1β [2] = assay: LPS+ATP-induced model of inflammasome activation, plasma IL-1β by ELISA; type: in vivo, Balb/c mice; settings: for % IL-1 β inhibition: mice plasma
Protocol: The procedures detailed here can be utilized for testing all compounds of the disclosure. The example utilizes LPS+ATP-induced model of inflammasome activation in 8-10 weeks old male Balb/c mice for in vivo testing.
8-10 weeks old male Balb/c mice were challenged by intraperitoneal (i.p.) injection of 200 μg/Kg (0.2 μg/g) LPS at t=0 hr, followed by i.p. injection of 5 mM solution of ATP at t=2 hr (2 h after LPS challenge). The compound of disclosure being tested for inhibitory activity (such as Compound 6) was administered both via intraperitoneal and oral route at −1 hr. Different doses of the compound of the disclosure were given to the mice […] as shown below.
MCC950, a specific small molecule inhibitor of NLRP3 inflammasome was used as a positive control to enable comparison of inhibitory activity of the compounds of the disclosure along with a known inhibitor. 2.5 hours after the LPS priming (or 0.5 hours after ATP administration), blood was collected via retro-orbital bleeding in heparinized blood collection tubes. Blood was centrifuged for 5 minutes at 10,000 rpm in a refrigerated centrifuge to obtain plasma. Separated plasma was used for cytokine assessment by ELISA. The standard curve (OD VS concentration) for IL-1β was also plotted and used to determine the IL-1β concentration for the OD values. The percentage of inhibition of IL-1β was calculated using the formula: […]

CYP2D6 = molecular target: T1, CYP2D6 (Homo sapiens, UniProt P10635); assay: Metabolic stability in human liver microsomes with CYP 2D6 inhibitor Quinidine; type: in vitro ADME; settings: 1 μM + Quinidine (20 μM)
T1 construct: The experiment was conducted in human liver microsomes; from tissue; host or cells: human liver microsomes

CYP 1A2 = molecular target: T2, CYP 1A2 (Homo sapiens, UniProt P05177); assay: Metabolic stability in human liver microsomes with CYP 1A2 inhibitor Furafylline; type: in vitro ADME; settings: 1 μM + Furafylline (20 μM)
T2 construct: The experiment was conducted in human liver microsomes; from tissue; host or cells: human liver microsomes
T2 sequence (P05177 1-516): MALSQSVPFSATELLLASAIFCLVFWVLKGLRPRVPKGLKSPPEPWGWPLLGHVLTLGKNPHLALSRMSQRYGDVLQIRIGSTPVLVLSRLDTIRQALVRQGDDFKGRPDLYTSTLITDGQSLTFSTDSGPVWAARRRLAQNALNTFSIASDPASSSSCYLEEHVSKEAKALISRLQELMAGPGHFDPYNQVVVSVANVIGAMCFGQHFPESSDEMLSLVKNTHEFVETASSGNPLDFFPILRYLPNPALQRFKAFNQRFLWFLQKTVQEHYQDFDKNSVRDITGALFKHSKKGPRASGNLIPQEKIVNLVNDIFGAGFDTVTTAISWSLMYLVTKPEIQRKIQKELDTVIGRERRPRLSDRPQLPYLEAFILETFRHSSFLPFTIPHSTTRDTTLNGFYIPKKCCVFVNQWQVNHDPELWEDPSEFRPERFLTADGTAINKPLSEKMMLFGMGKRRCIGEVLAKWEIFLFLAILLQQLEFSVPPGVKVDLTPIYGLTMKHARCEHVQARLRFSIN

MDR1 (P-gp) = assay: in vitro; set-up: Papp A→B at 60 min / Papp B→A at 60 min / efflux ratio at 60 min / recovery at 60 min / % recovery Apical concentration-Basal concentration / % recovery Basal concentration-Apical concentration: dose or concentration left out as unconfirmed; settings: dog
Protocol: (§3) Digoxin is used as reference and lucifer yellow is used as the integrity marker. […] Papp, efflux ratio and percent recovery are calculated.

MDR1 = assay: in vitro; set-up: Papp A→B at 60 min / Papp B→A at 60 min / efflux ratio at 60 min / recovery at 60 min / % recovery Apical concentration-Basal concentration / % recovery Basal concentration-Apical concentration: dose or concentration left out as unconfirmed; settings: dog, MDCK-MDR1
Protocol: as §3

CYP 3A4 = CYP 3A4 (Homo sapiens, UniProt P08684); assay: Metabolic stability in human liver microsomes with CYP 3A4 inhibitor Ketoconazole; settings: 1 μM + Ketoconazole (20 μM)
Sequence of CYP 3A4 (P08684 whole entry): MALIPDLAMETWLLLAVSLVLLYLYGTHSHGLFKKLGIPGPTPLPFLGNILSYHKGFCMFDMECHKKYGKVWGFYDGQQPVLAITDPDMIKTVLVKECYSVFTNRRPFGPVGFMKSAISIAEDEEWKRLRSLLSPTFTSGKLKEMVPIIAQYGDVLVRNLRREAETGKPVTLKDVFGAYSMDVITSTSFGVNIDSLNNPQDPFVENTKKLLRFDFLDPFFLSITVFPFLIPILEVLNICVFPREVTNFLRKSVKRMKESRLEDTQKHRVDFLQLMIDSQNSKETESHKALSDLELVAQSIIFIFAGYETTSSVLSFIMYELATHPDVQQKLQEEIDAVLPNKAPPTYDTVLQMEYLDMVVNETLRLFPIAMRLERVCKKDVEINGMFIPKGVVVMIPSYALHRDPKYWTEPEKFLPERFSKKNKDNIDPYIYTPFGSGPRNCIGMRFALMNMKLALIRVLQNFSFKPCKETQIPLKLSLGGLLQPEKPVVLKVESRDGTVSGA

T1 sequence (P10635 whole entry): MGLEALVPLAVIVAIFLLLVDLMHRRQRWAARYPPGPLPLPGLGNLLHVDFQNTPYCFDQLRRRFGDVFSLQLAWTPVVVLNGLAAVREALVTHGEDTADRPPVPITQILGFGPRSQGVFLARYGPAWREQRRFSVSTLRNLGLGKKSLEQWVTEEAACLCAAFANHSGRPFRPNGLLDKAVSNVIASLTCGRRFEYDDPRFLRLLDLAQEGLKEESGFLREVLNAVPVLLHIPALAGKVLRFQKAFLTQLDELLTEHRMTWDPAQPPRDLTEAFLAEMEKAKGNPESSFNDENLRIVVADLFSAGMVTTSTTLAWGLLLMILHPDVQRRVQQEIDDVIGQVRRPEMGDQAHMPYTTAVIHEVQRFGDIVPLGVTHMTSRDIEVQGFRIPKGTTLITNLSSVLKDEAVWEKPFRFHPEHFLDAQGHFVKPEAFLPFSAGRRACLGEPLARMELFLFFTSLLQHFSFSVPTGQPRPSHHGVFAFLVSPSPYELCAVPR

With `O=C1Nc2ccccc2N(C(=O)CCl)c2ccc(F)cc21` [Compound 6, 5-(2-chloroacetyl)-2-fluoro-5,10-dihydro-11H-dibenzo[b,e][1,4]diazepin-11-one] the “IL-1β levels under in vitro conditions (FIG. 3, percentage of cytokine inhibition against concentration)” value (IL-1β [1]) was “dose dependent decrease in IL-1β levels”, the cell viability (THP-1 cells) was 99% and the “% IL-1 β inhibition” value (IL-1β [2]; 1 mg/kg, Intraperitoneal) was 52%. The “% IL-1 β inhibition” value (IL-1β [2]; 10 mg/kg, Intraperitoneal) was 79%, the “% IL-1 β inhibition” value (IL-1β [2]; 10 mg/kg, Oral) was 46% and the “plasma IL-1β levels under in vivo conditions (FIG. 4, in words)” value (IL-1β [2]; escalating doses, LPS+ATP mice model) was “dose dependent reduction of IL-β; also recorded: dose dependent decrease in IL-1β levels”. The “% rem @ 5 min” value (CYP2D6) was 80.8%, the “% rem @ 15 min” value (CYP2D6) was 67.3% and the “% rem @ 30 min” value (CYP2D6) was 57.4%. For the same molecule, the “% rem @ 45 min” value (CYP2D6) was 60.1%, the half-life at 1 µM (CYP2D6; pH 7.4, with quinidine 20 µM) was 1.07 h and the microsomal CLint at 1 μM (CYP2D6; pH 7.4, with quinidine 20 µM, read-out: mCLint) was 21.6 µL/min/mg. For the same molecule, the “% rem @ 5 min” value (CYP 1A2) was 96.8%, the “% rem @ 15 min” value (CYP 1A2) was 87.7% and the “% rem @ 30 min” value (CYP 1A2) was 66.9%. For the same molecule, the “% rem @ 45 min” value (CYP 1A2) was 63.2%, the half-life at 1 µM (CYP 1A2; pH 7.4, with Furafylline 20 μM) was 1.03 h and the microsomal CLint at 1 μM (CYP 1A2; pH 7.4, with Furafylline 20 μM, read-out: mCLint) was 22.5 µL/min/mg. It also gave an efflux ratio at 60 min (MDR1 (P-gp); MDCK-MDR1) of 1.22, a recovery at 60 min (MDR1 (P-gp); MDCK-MDR1, % recovery Apical concentration-Basal concentration) of 49.1% and a recovery at 60 min (MDR1 (P-gp); MDCK-MDR1, % recovery Basal concentration-Apical concentration) of about 100%. For the same molecule, the Papp A→B at 60 min (MDR1) was 26 ×10⁻⁶ cm/s, the Papp A→B at 60 min, 5 µM (MDR1) was 26 ×10⁻⁶ cm/s and the Papp B→A at 60 min (MDR1) was 31.6 ×10⁻⁶ cm/s. The efflux ratio at 60 min, 5 µM (MDR1) was under 2, the “% rem @ 5 min” value (CYP 3A4) was 81.9% and the “% rem @ 15 min” value (CYP 3A4) was 81.5%. The “% rem @ 30 min” value (CYP 3A4) was 61.8% and the “% rem @ 45 min” value (CYP 3A4) was 52.9%.

— patent US20250206714A1, “COMPOSITIONS AND METHODS FOR TREATMENT OF INFLAMMATORY DISEASES” (Invea Therapeutics, Inc., priority 2022, published 2025)
